In patent US20150291610A1, “C20' Urea Derivatives of Vinca Alkaloids” (THE SCRIPPS RESEARCH INSTITUTE, priority 2012, published 2015):
Where two headings read alike, the source gives them in different places.

Columns and labels:
[1] = system: HCT116 (human colorectal carcinoma) cells; details: cited from earlier work; for IC50: reported in Leggans et al., Org. Lett. 2012
[2] = system: HCT116 (human colorectal carcinoma) cells; assay: Cell growth inhibition assay, HCT116; format: cell-based; details: for fold more potent than vinblastine, HCT116: relative to vinblastine
Procedure: (§1) A population of cells (>1×10^6 cells/mL as determined with a hemocytometer) was diluted with an appropriate amount of Dulbecco-modified Eagle Medium (DMEM, Gibco) containing 10% fetal bovine serum (FBS, Gibco) to a final concentration of 30,000 cells/mL.
(§2) To each well of a 96-well plate (Corning Costar), 100 μL of the cell-media solution was added with a multichannel pipette. The cultures were incubated at 37° C. in an atmosphere of 5% CO2 and 95% humidified air for 24 hours. The test compounds were added to the plate as follows: test substances were diluted in DMSO to a concentration of 1 mM and 10-fold serial dilutions were performed on a separate 96-well plate. Fresh culture medium (100 μL) was added to each well of cells to constitute 200 μL of medium per well followed by 2 μL of each test agent. Compounds were tested in duplicate (n=2-8 times) at six concentrations between 0-1,000 nM or 0-10,000 nM. Following addition, cultures were incubated for an additional 72 hours.
(§3) The plates were incubated at 37° C. for either 5 minutes (L1210) or 15 minutes (HCT116 and HCT116/VM46).

[3] = system: HCT116/VM46 (vinblastine-resistant strain of HCT116, Pgp over-expression) cells; assay: Cell growth inhibition assay, HCT116/VM46; details: for IC50: read-out: IC50 (nM) HCT116/VM46, resistant human colon cancer cell line, Pgp over-expression; for fold improvement over vinblastine, HCT116/VM46: relative to vinblastine
Procedure: as §1, §2, §3

[4] = system: L1210 (mouse lymphocytic leukemia) cells; details: reported in Leggans et al., Org. Lett. 2012; cited from earlier work
[5] = system: HCT116/VM46 (vinblastine-resistant strain of HCT116, Pgp over-expression) cells; details: read-out: IC50 (nM) HCT116/VM46; reported in Leggans et al., Org. Lett. 2012; cited from earlier work
[6] = system: L1210 (mouse lymphocytic leukemia) cells; assay: Cell growth inhibition assay, L1210; format: cell-based; details: L1210 murine leukemia cell line; avg of 4-16 determinations
Procedure: as §1, §2, §3

[7] = HCT116 human colon cancer cell line, avg of 4-16 determinations, read-out: IC50 (nM) HCT116
[8] = text values in pM, read-out: IC50 HCT116

Compound: CC[C@]1(O)C[C@@H]2CN(CCc3c([nH]c4ccc(F)cc34)[C@@](C(=O)OC)(c3cc4c(cc3OC)N(C)[C@H]3[C@@](O)(C(=O)OC)[C@H](OC(C)=O)[C@]5(CC)C=CCN6CC[C@]43[C@@H]65)C2)C1 [Compound 48, reference compound]
- fold improvement in activity over vinblastine ([1]; Gotoh et al., ACS Med. Chem. Lett. 2011): 8 fold
- IC50 [2, 7]: 0.8 nM
- IC50 [3]: 80 nM

Compound: CCC1(SC#N)CC2CN(CCc3c([nH]c4ccccc34)C(C(=O)OC)(c3cc4c(cc3OC)N(C)C3C(O)(C(=O)OC)C(OC(C)=O)C5(CC)C=CCN6CCC43C65)C2)C1 (stereo not shown) [SCN]
- IC50 [1]: 550 nM
- IC50 [4]: 560 nM
- IC50 [5]: 2900 nM

Compound: CC[C@]1(NC(N)=S)C[C@@H]2CN(CCc3c([nH]c4ccccc34)[C@@](C(=O)OC)(c3cc4c(cc3OC)N(C)[C@H]3[C@@](O)(C(=O)OC)[C@H](OC(C)=O)[C@]5(CC)C=CCN6CC[C@]43[C@@H]65)C2)C1 [Compound 12]
- IC50 [1]: 7.7 nM
- IC50 [2, 7]: 7.7 nM
- IC50 [4]: 55 nM
- IC50 [3]: 2000 nM
- IC50 [5]: 2000 nM

Compound: CCC1(NC(=O)NC(=O)C(Cl)(Cl)Cl)CC2CN(CCc3c([nH]c4ccccc34)C(C(=O)OC)(c3cc4c(cc3OC)N(C)C3C(O)(C(=O)OC)C(OC(C)=O)C5(CC)C=CCN6CCC43C65)C2)C1 (stereo not shown) [NHCONHCOCCl3]
- IC50 [1]: 6 nM
- IC50 [4]: 45 nM
- IC50 [5]: 1600 nM

Compound: CC[C@]1(N=C=S)C[C@@H]2CN(CCc3c([nH]c4ccccc34)[C@@](C(=O)OC)(c3cc4c(cc3OC)N(C)[C@H]3[C@@](O)(C(=O)OC)[C@H](OC(C)=O)[C@]5(CC)C=CCN6CC[C@]43[C@@H]65)C2)C1 [Compound 5, 20′-isothiocyano-vinblastine]
- IC50 [1]: 530 nM
- IC50 [4]: 590 nM
- IC50 [5]: 7000 nM

Compound: CCC1(NC(C)=O)CC2CN(CCc3c([nH]c4ccccc34)C(C(=O)OC)(c3cc4c(cc3OC)N(C)C3C(O)(C(=O)OC)C(OC(C)=O)C5(CC)C=CCN6CCC43C65)C2)C1 (stereo not shown) [Compound 9]
- IC50 [1]: 90 nM
- IC50 [4]: 65 nM
- IC50 [5]: 7500 nM

Compound: CC1(C)CCCC(C)(C)N1[O] [TEMPO]
- IC50 [1]: 3800 nM
- IC50 [4]: 4000 nM
- IC50 [5]: 5600 nM

Compound: CCC1CC2CN(CCc3c([nH]c4ccccc34)C(C(=O)OC)(c3cc4c(cc3OC)N(C)C3C(O)(C(=O)OC)C(OC(C)=O)C5(CC)C=CCN6CCC43C65)C2)C1 (stereo not shown) [Compound 3, 20′-deoxyvinblastine]
- IC50 [1]: 60 nM
- IC50 [4]: 50 nM
- IC50 [5]: 600 nM

Compound: CCC1(NC(=O)C(F)(F)F)CC2CN(CCc3c([nH]c4ccccc34)C(C(=O)OC)(c3cc4c(cc3OC)N(C)C3C(O)(C(=O)OC)C(OC(C)=O)C5(CC)C=CCN6CCC43C65)C2)C1 (stereo not shown) [NHCOCF3]
- IC50 [1]: 690 nM
- IC50 [4]: 660 nM
- IC50 [5]: 8100 nM

Compound: CC[C@]1(NC(=O)NC(C)(C)C)C[C@@H]2CN(CCc3c([nH]c4ccccc34)[C@@](C(=O)OC)(c3cc4c(cc3OC)N(C)[C@H]3[C@@](O)(C(=O)OC)[C@H](OC(C)=O)[C@]5(CC)C=CCN6CC[C@]43[C@@H]65)C2)C1 [Compound 20]
- IC50 [2, 7]: 20 nM
- IC50 [3]: 670 nM
- IC50 [6]: 40 nM

Compound: CC[C@]1(NC(=O)Nc2ccccc2OC)C[C@@H]2CN(CCc3c([nH]c4ccccc34)[C@@](C(=O)OC)(c3cc4c(cc3OC)N(C)[C@H]3[C@@](O)(C(=O)OC)[C@H](OC(C)=O)[C@]5(CC)C=CCN6CC[C@]43[C@@H]65)C2)C1 [Compound 30]
- fold more potent than vinblastine, HCT116 [2]: ~10 fold
- IC50 [2, 8]: 0.77 nM
- IC50 [3]: 65 nM
- fold improvement over vinblastine, HCT116/VM46 [3]: 10 fold
- IC50 [6]: 4.8 nM

Compound: CCC1(NC(=O)OC)CC2CN(CCc3c([nH]c4ccccc34)C(C(=O)OC)(c3cc4c(cc3OC)N(C)C3C(O)(C(=O)OC)C(OC(C)=O)C5(CC)C=CCN6CCC43C65)C2)C1 (stereo not shown) [Compound 10]
- IC50 [1]: 75 nM
- IC50 [4]: 50 nM
- IC50 [5]: 2600 nM

Compound: CCC1(NC(=O)Nc2ccc(OC)cc2)CC2CN(CCc3c([nH]c4ccccc34)C(C(=O)OC)(c3cc4c(cc3OC)N(C)C3C(O)(C(=O)OC)C(OC(C)=O)C5(CC)C=CCN6CCC43C65)C2)C1 (stereo not shown) [Compound 28]
- IC50 [2, 7]: 2 nM
- IC50 [3]: 230 nM
- IC50 [6]: 4.9 nM

Compound: CC[C@]1(NC(=O)NC2CC2)C[C@@H]2CN(CCc3c([nH]c4ccccc34)[C@@](C(=O)OC)(c3cc4c(cc3OC)N(C)[C@H]3[C@@](O)(C(=O)OC)[C@H](OC(C)=O)[C@]5(CC)C=CCN6CC[C@]43[C@@H]65)C2)C1 [Compound 18]
- IC50 [2, 7]: 0.73 nM
- IC50 [3]: 85 nM
- fold improvement over vinblastine, HCT116/VM46 [3]: 10 fold
- IC50 [6]: 3.9 nM

Compound: CC[C@]1(NC(=O)N2CCOCC2)C[C@@H]2CN(CCc3c([nH]c4ccccc34)[C@@](C(=O)OC)(c3cc4c(cc3OC)N(C)[C@H]3[C@@](O)(C(=O)OC)[C@H](OC(C)=O)[C@]5(CC)C=CCN6CC[C@]43[C@@H]65)C2)C1 [Compound 41]
- IC50 [2, 7]: 4.5 nM
- IC50 [3]: 360 nM
- IC50 [6]: 5.3 nM

Compound: CCC1(N=[N+]=[N-])CC2CN(CCc3c([nH]c4ccccc34)C(C(=O)OC)(c3cc4c(cc3OC)N(C)C3C(O)(C(=O)OC)C(OC(C)=O)C5(CC)C=CCN6CCC43C65)C2)C1 (stereo not shown) [Compound N3]
- IC50 [1]: 690 nM
- IC50 [4]: 670 nM
- IC50 [5]: 5500 nM

Compound: CC[C@]1(NC(=O)NC2CCCCC2)C[C@@H]2CN(CCc3c([nH]c4ccccc34)[C@@](C(=O)OC)(c3cc4c(cc3OC)N(C)[C@H]3[C@@](O)(C(=O)OC)[C@H](OC(C)=O)[C@]5(CC)C=CCN6CC[C@]43[C@@H]65)C2)C1 [Compound 21]
- IC50 [2, 7]: 5.4 nM
- IC50 [3]: 450 nM
- IC50 [6]: 5.8 nM

Compound: CC[C@]1(NC(=O)Nc2ccc(C)cc2)C[C@@H]2CN(CCc3c([nH]c4ccccc34)[C@@](C(=O)OC)(c3cc4c(cc3OC)N(C)[C@H]3[C@@](O)(C(=O)OC)[C@H](OC(C)=O)[C@]5(CC)C=CCN6CC[C@]43[C@@H]65)C2)C1 [Compound 26]
- IC50 [2, 7]: 4.8 nM
- IC50 [3]: 330 nM
- IC50 [6]: 4.5 nM

Compound: CC[C@]1(NC(=O)Nc2cccc(OC)c2)C[C@@H]2CN(CCc3c([nH]c4ccccc34)[C@@](C(=O)OC)(c3cc4c(cc3OC)N(C)[C@H]3[C@@](O)(C(=O)OC)[C@H](OC(C)=O)[C@]5(CC)C=CCN6CC[C@]43[C@@H]65)C2)C1 [Compound 29]
- fold more potent than vinblastine, HCT116 [2]: ~10 fold
- IC50 [2, 8]: 0.77 nM
- IC50 [3]: 80 nM
- fold improvement over vinblastine, HCT116/VM46 [3]: 10 fold
- IC50 [6]: 5.4 nM

Compound: CC[C@]1(NC(=O)Nc2ccc(Cl)cc2)C[C@@H]2CN(CCc3c([nH]c4ccccc34)[C@@](C(=O)OC)(c3cc4c(cc3OC)N(C)[C@H]3[C@@](O)(C(=O)OC)[C@H](OC(C)=O)[C@]5(CC)C=CCN6CC[C@]43[C@@H]65)C2)C1 [Compound 25]
- IC50 [2, 7]: 6.7 nM
- IC50 [3]: 590 nM
- IC50 [6]: 6.2 nM

Compound: CCC1(NC=O)CC2CN(CCc3c([nH]c4ccccc34)C(C(=O)OC)(c3cc4c(cc3OC)N(C)C3C(O)(C(=O)OC)C(OC(C)=O)C5(CC)C=CCN6CCC43C65)C2)C1 (stereo not shown) [NHCHO]
- IC50 [1]: 85 nM
- IC50 [4]: 65 nM
- IC50 [5]: 6500 nM

Compound: CC[C@]1(NC(=O)Nc2ccc(F)cc2)C[C@@H]2CN(CCc3c([nH]c4ccccc34)[C@@](C(=O)OC)(c3cc4c(cc3OC)N(C)[C@H]3[C@@](O)(C(=O)OC)[C@H](OC(C)=O)[C@]5(CC)C=CCN6CC[C@]43[C@@H]65)C2)C1 [Compound 24]
- IC50 [2, 7]: 3.9 nM
- IC50 [3]: 400 nM
- IC50 [6]: 5.7 nM

Compound: CCCCNC(=O)N[C@@]1(CC)C[C@@H]2CN(CCc3c([nH]c4ccccc34)[C@@](C(=O)OC)(c3cc4c(cc3OC)N(C)[C@H]3[C@@](O)(C(=O)OC)[C@H](OC(C)=O)[C@]5(CC)C=CCN6CC[C@]43[C@@H]65)C2)C1 [Compound 19]
- IC50 [2, 7]: 4.6 nM
- IC50 [3]: 270 nM
- IC50 [6]: 5.7 nM
